Like-named read-outs stand apart in the source and are kept apart here.
Target: TPK enzyme (Homo sapiens, UniProt Q9H3S4)
Experiment: TPK enzyme activity test (TDP formation from thiamine and ATP, HPLC detection)
Assay type: biochemical
Method: The purpose of this example was to test the promoting effect of compounds on TPK enzyme activity and evaluate the in vitro activity of the compounds based on EC50 and Emax.
1.1) The constant-temperature water-bath shaker was pre-heated half an hour in advance at a pre-heating temperature of 37° C.
1.2) The stock solution of the compound to be tested was taken out, allowed to thaw at room temperature, and then diluted to the required concentration.
1.3) The required reagents were placed on ice to thaw.
2.1) For each reaction system, TPK enzyme solution, Tris-HCl buffer solution, and ATP solution were added. The concentration of ATP used was 1-500 mM. The above three solutions were formulated into a homogeneous mixture.
2.2) The mixture of the above three solutions was dispensed into centrifuge tubes. Then, the compound at the required concentration was added to each centrifuge tube. Finally, thiamine solution (1-100 μM) was added. After the addition of the above system was completed, the centrifuge tubes were tightly capped, inserted into a floating board, and placed in the constant-temperature water-bath shaker that had been pre-heated to 37° C. for incubation for 0.5-2.0 hours.
2.3) After the incubation was completed, perchloric acid stop solution was added and mixed well. Samples were taken into 1.5 mL centrifuge tubes and stored at −20° C.
3.1) The samples stored at −20° C. were taken out, thawed at room temperature, and then subjected to derivatization treatment. The samples were placed in centrifuge tubes, a potassium ferricyanide derivatization reagent was added, and finally phosphoric acid stop solution was added to stop the reaction.
3.2) The derivatized samples were placed in sample vials for liquid chromatography analysis, and the contents of TDP/thiamine were detected by high performance liquid chromatography. TKP enzyme activity=TDP (nM)/mg protein/min.
The effects of the compounds of the present invention on TPK enzyme activity at different concentrations were determined according to the above procedures.

[1] = promoting effect on TPK enzyme activity
[2] = promoting effect on TPK enzyme activity, calculated with the effect of DMSO on TPK enzyme activity as 100%, read-out: Emax

Sequence of TPK enzyme (Q9H3S4 whole entry): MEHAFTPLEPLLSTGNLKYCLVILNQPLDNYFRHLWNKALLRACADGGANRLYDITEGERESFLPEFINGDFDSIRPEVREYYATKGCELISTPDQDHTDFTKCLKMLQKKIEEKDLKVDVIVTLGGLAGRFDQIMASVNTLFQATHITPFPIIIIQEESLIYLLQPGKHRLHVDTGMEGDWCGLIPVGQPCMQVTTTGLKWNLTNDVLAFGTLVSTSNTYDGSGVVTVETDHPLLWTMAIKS

Compound | Emax | EC50 [1] | Emax [2]
COc1cncc(C#CCCN2CCN(c3cccc(Cl)c3Cl)CC2)c1 [Compound 71, 1-(2,3-dichlorophenyl)-4-(4-(5-methoxypyridin-3-yl)but-3-yn-1-yl)piperazine] | 189% | 1.19 µM | –
O=C1COc2ccc(C(=O)CSCCSCC(=O)c3ccc4c(c3)NC(=O)CO4)cc2N1 [Compound 155] | – | – | 125%
COc1ccc(C(=O)NCCCC(=O)N2CCN(c3cccc(Cl)c3Cl)CC2)cc1OC [Compound 170] | 156% | 4.39 µM | –
COc1ccc(C(=O)NCCC(=O)N2CCN(c3cccc(Cl)c3Cl)CC2)cc1OC [Compound 169, N-(3-(4-(2,3-dichlorophenyl)piperazin-1-yl)-3-oxopropyl)-3,4-dimethoxybenzamide] | 148% | 7.23 µM | –
O=C(/C=C/c1ccc(O)c(O)c1)N1CCN(c2cccc(Cl)c2Cl)CC1 [Compound 56] | – | – | 180%
COc1ccc(/C=C/CN2CCN(c3nc4ccccc4s3)CC2)cc1OC [Compound 73, (E)-2-(4-(3-(3,4-dimethoxyphenyl)allyl)piperazin-1-yl)benzo[d]thiazole] | – | 0.65 µM | 155%
COc1ccc(/C=C/C(=O)N2CCN(c3nc4ccccc4s3)CC2)cc1OC [Compound 74, (E)-1-(4-(benzo[d]thiazol-2-yl)piperazin-1-yl)-3-(3,4-dimethoxyphenyl)prop-2-en-1-one] | – | 12.1 µM | 182%
COc1ccc(Cn2c(C(=O)N3CCC(CCOc4ccc5c(c4)NC(=O)CC5)CC3)cc3sccc32)cc1 [Compound 134, 7-(2-(1-(4-(4-methoxybenzyl)-4H-thieno[3,2-b]pyrrole-5-carbonyl)piperidin-4-yl)ethoxy)-3,4-dihydroquinolin-2(1H)-one] | – | – | 149%
O=C1CCc2ccc(OCCCCN3CCN(c4cccc(Cl)c4Cl)CC3)cc2N1 [Compound 2] | – | 0.46 µM | 155%
Cc1cc2c(s1)Nc1ccccc1N=C2N1CCN(CCCOc2ccc3c(c2)NC(=O)CC3)CC1 [Compound 40, 7-(3-(4-(2-methyl-10H-benzo[b]thieno[2,3-e][1,4]diazepin-4-yl)piperazin-1-yl)propoxy)-3,4-dihydroquinolin-2(1H)-one] | – | – | 122%
O=C1CCc2cc(OCC(=O)N3CCCN(Cc4ccc(Cl)cc4)CC3)ccc2N1 [Compound 141] | – | – | 124%
O=C1CCc2ccc(OCCCCCCN3CCN(c4cccc(Cl)c4Cl)CC3)cc2N1 [Compound 3, 7-((6-(4-(2,3-dichlorophenyl)piperazin-1-yl)hexyl)oxy)-3,4-dihydroquinolin-2(1H)-one] | – | – | 205%
COc1cc2c(cc1OC)C(CCCCC(=O)NCc1ccc(C(C)C)cc1)C(=O)N2 (stereo not shown) [Compound 132, 5-(5,6-dimethoxy-2-oxoindolin-3-yl)-N-(4-isopropylbenzyl)pentanamide] | – | – | 120%
Cc1cccc(NC(=O)CSCC(=O)N2CCN(c3cc(C(F)(F)F)cc(C(F)(F)F)c3)CC2)c1 [Compound 45, 2-((2-(4-(3,5-bis(trifluoromethyl)phenyl)piperazin-1-yl)-2-oxoethyl)thio)-N-(m-tolyl)acetamide] | – | 1.07 µM | 152%
Cc1ccc2c(n1)N(CCCCCN1CCN(c3cc(Cl)ccc3C)CC1)CCO2 [Compound 77, 4-(5-(4-(5-chloro-2-methylphenyl)piperazin-1-yl)pentyl)-6-methyl-3,4-dihydro-2H-pyrido[3,2-b][1,4]oxazine] | 146% | – | –
CC1(C)CCC(C)(C)c2cc(NC(=O)C=CC(=O)N3CCN(c4cccc(Cl)c4Cl)CC3)ccc21 [Compound 30, 4-(4-(2,3-dichlorophenyl)piperazin-1-yl)-4-oxo-N-(5,5,8,8-tetramethyl-5,6,7,8-tetrahydronaphthalen-2-yl)but-2-enamide] | – | – | 132%
O=C1NCCN1CCN1CCC(c2cn(-c3ccc(F)cc3)c3ccc(Cl)cc23)CC1 [Compound 136] | – | 2.79 µM | 137%
